Patent US20260123631A1, “NATURAL PORPHIN SALT AND USE THEREOF AS PLANT GROWTH REGULATOR AND PLANT IMMUNITY INDUCER” (NANJING BOSTEC BIOLOGICAL ENGINEERING CO., LTD, priority 2022, published 2026)

Experiments:
wheat = assay: Spraying on wheat to increase a yield; type: in vivo, wheat (Huaimai 35)
Protocol: Crop: Huaimai 35. […] On Jun. 11, 2021, the harvesting was conducted throughout the field at a time.

rice seedlings = assay: Spraying on drought rice seedlings; type: in vivo, rice (Huiliangyou 473)
Protocol: Method: Full rice seeds were selected, disinfected with 6% sodium hypochlorite for 2 min to 3 min, then rinsed with water, soaked in clear water at room temperature (30±1° C.) until the germination was started, and then transferred to seedling trays to raise seedlings. About 15 d later, rice seedlings with consistent growth were selected and transferred into buckets to allow further growth, with 3 holes per bucket and 2 plants per hole. A soil was a clay loam. Before transplanting, the soil was crushed, sieved, and thoroughly mixed. […] The water, fertilizers, pests, and diseases during the cultivation in the seedling trays were uniformly managed.
Drought model: The transplanting was conducted on Aug. 18, 2020. The next day (August 19), the natural drought and sample-spraying treatment were started for rice seedlings. A soil moisture content was determined by the NY/T 52-1987 method.
After the drought stress and sample-spraying were started at a tillering stage (September 19) of rice, a chlorophyll content (mg/g) in leaves was detected twice on day 3 and day 6 (September 21 and September 25), respectively.

[1] = Stability of sample solutions in the dark/under light; type: physicochemical; conditions: under light 30,000 lux, salts in water, acidic reference in 30% to 50% ethanol
Outline: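 Salt in water, or acidic reference in 30–50% aqueous ethanol, at about 10 ppm; UV absorbance scanned 200–800 nm at 0, 1, 2, 3 h, stored at 25° C dark or under 30,000 lux light. Relative content = max-peak absorbance at each time divided by 0 h value (100%).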

rice = assay: Germination of rice under salt stress; type: in vivo, rice (Nanjing 9108); conditions: sample 0.2 ppm; for Increase of root weight-promoting speed / Increase of root-shoot ratio / Increase of seedling weight-promoting rate: versus 4.5 g/L NaCl without sample
Protocol: The selected full seeds of rice (variety: Nanjing 9108) were soaked in a sodium hypochlorite solution to allow disinfection for 2 min to 3 min, and then rinsed with clear water twice to three times. After the rinsing, 50 full seeds were selected and fully immersed in a prepared seed-soaking solution at 25° C. for 48 h. The soaked seeds were transferred to a plastic box with two paper towel layers tiled. The germination bed was moistened with a salt solution at a concentration corresponding to each treatment. The seeds were incubated in a 25° C. incubator with a light cycle of 12 h light/12 h dark and a humidity of 70%, during which the germination bed was always kept moist. The germination of rice seeds and the growth of seedlings were observed and recorded day by day. A germination rate of each treatment was recorded on […], and a number of normal seedlings was counted on day 14. 10 seeds were randomly selected from each treatment to measure a seedling length, a root length, a root number, a root weight, and a seedling weight. The germination energy was counted on day 5 and a germination rate was counted on day 14.

[2] = Water solubility of the prepared salts; type: physicochemical
chlorophyllase = assay: In vitro chlorophyllase-inhibiting activity test; type: biochemical, mung bean; conditions: substrate chlorophyll 120 ppm, sample 0.3 ppm to 30.0 ppm
Protocol: A chlorophyllase inhibition rate of a salt sample solution at each concentration was determined, and an IC50 value for a chlorophyllase inhibition activity of a salt sample was calculated.

mung bean seedlings = assay: Inducing adventitious roots from hypocotyls of mung bean; type: in vivo; conditions: day 7
Protocol: Test solution preparation: 8 mL of a commercially-available STANLEY universal hydroponic nutrient solution was taken and diluted with tap water to 3,200 mL (400-fold dilution) to produce a dilute nutrient solution. An appropriate amount of each of salt samples such as protoporphyrin disodium and potassium chlorhematin was weighed and prepared with the dilute nutrient solution into 0.010 ppm and 0.1 ppm sample test solutions, and 150 mL of each test solution was taken. 150 mL of the dilute nutrient solution was taken as a blank control. The test solutions and the control solution were placed in brown bottles, and the brown bottles were sealed with a black film. Mung bean seedlings with uniform growth and a seedling height of 7 cm to 8 cm were selected, and cut at 3 cm below a first true leaf node. 8 mung bean seedlings were inserted into each bottle (with roots removed) to make lower radicles soaked in a solution. Mung bean seedlings were treated at room temperature of 20° C. to 25° C. for 7 d in total, during which the solution was changed every 2 d. On day 2 to day 3 of the treatment, there was a significant difference. On day 7, the observation and determination were conducted. An average adventitious root number and an average total adventitious root length for each seedling were calculated, and results were shown in the following table: […]

[3] = 3 mg/mu sprayed 3 times (0.2, 0.1, 0.1 ppm)

Relative content ([1]; 1 h): 70.13%
Relative content ([1]; 2 h): 62.66%
Relative content ([1]; 3 h): 59.17%
solubility in water [2]: easily soluble
IC50 for chlorophyllase inhibition activity (chlorophyllase): 5.07 ppm
Substance: potassium iron chlorin [Example 20]
Actual yield per mu (wheat; [3]): 601.5 kg
Ear number per mu (wheat; [3]): 31.9 10,000
Grain number per ear (wheat; [3]): 35.0 grains/ear
Thousand-grain weight (wheat; [3]): 53.9 g
Yield increase rate per mu (wheat; 3 mg/mu sprayed 3 times, versus clear water): 7.60%
Change rate of chlorophyll content (rice seedlings; 0.002 ppm, Day 3): 9.49%
Chlorophyll content in rice leaves (rice seedlings; 0.002 ppm, Day 3): 3.69 mg/g
Change rate of chlorophyll content (rice seedlings; 0.002 ppm, Day 6): 42.96%
Chlorophyll content in rice leaves (rice seedlings; 0.002 ppm, Day 6): 3.86 mg/g
Change rate of chlorophyll content (rice seedlings; 0.05 ppm, Day 3): 29.67%
Chlorophyll content in rice leaves (rice seedlings; 0.05 ppm, Day 3): 4.37 mg/g
Change rate of chlorophyll content (rice seedlings; 0.05 ppm, Day 6): 63.70%
Chlorophyll content in rice leaves (rice seedlings; 0.05 ppm, Day 6): 4.42 mg/g
Average germination time (rice; NaCl 0 g/L): 3.10 D
Dry root weight (rice; NaCl 0 g/L): 0.0587 g/plant
Dry seedling weight (rice; NaCl 0 g/L): 0.0543 g
First leaf length (rice; NaCl 0 g/L): 3.84 cm
Germination energy (rice; NaCl 0 g/L): 98.0%
Germination index (rice; NaCl 0 g/L): 52.21%
Germination rate (rice; NaCl 0 g/L): 98.0%
Root length (rice; NaCl 0 g/L): 7.00 cm
Root number (rice; NaCl 0 g/L): 8.67 roots/plant
Root weight-promoting speed (rice; NaCl 0 g/L): 4.19 mg/day
Root-shoot ratio (rice; NaCl 0 g/L): 1.082
Seedling height (rice; NaCl 0 g/L): 6.83 cm
Seedling weight-promoting rate (rice; NaCl 0 g/L): 3.88 mg/day
Vitality index (rice; NaCl 0 g/L): 16.29%
Increase of root weight-promoting speed (rice; NaCl 0 g/L): 53.04%
Increase of root-shoot ratio (rice; NaCl 0 g/L): 25.31%
Increase of seedling weight-promoting rate (rice; NaCl 0 g/L): 19.27%
Average germination time (rice; NaCl 2.5 g/L): 3.28 D
Dry root weight (rice; NaCl 2.5 g/L): 0.0473 g/plant
Dry seedling weight (rice; NaCl 2.5 g/L): 0.0547 g
First leaf length (rice; NaCl 2.5 g/L): 3.79 cm
Germination energy (rice; NaCl 2.5 g/L): 96.7%
Germination index (rice; NaCl 2.5 g/L): 49.99%
Germination rate (rice; NaCl 2.5 g/L): 97.3%
Root length (rice; NaCl 2.5 g/L): 4.86 cm
Root number (rice; NaCl 2.5 g/L): 7.70 roots/plant
Root weight-promoting speed (rice; NaCl 2.5 g/L): 3.38 mg/day
Root-shoot ratio (rice; NaCl 2.5 g/L): 0.865
Seedling height (rice; NaCl 2.5 g/L): 6.68 cm
Seedling weight-promoting rate (rice; NaCl 2.5 g/L): 3.90 mg/day
Vitality index (rice; NaCl 2.5 g/L): 14.38%
Increase of root weight-promoting speed (rice; NaCl 2.5 g/L): 23.48%
Increase of root-shoot ratio (rice; NaCl 2.5 g/L): 0.15%
Increase of seedling weight-promoting rate (rice; NaCl 2.5 g/L): 20%
Average germination time (rice; NaCl 4.5 g/L): 3.16 D
Dry root weight (rice; NaCl 4.5 g/L): 0.0480 g/plant
Dry seedling weight (rice; NaCl 4.5 g/L): 0.0580 g
First leaf length (rice; NaCl 4.5 g/L): 3.88 cm
Germination energy (rice; NaCl 4.5 g/L): 97.3%
Germination index (rice; NaCl 4.5 g/L): 50.89%
Germination rate (rice; NaCl 4.5 g/L): 97.3%
Root length (rice; NaCl 4.5 g/L): 5.00 cm
Root number (rice; NaCl 4.5 g/L): 7.17 roots/plant
Root weight-promoting speed (rice; NaCl 4.5 g/L): 3.43 mg/day
Root-shoot ratio (rice; NaCl 4.5 g/L): 0.836
Seedling height (rice; NaCl 4.5 g/L): 6.71 cm
Seedling weight-promoting rate (rice; NaCl 4.5 g/L): 4.14 mg/day
Vitality index (rice; NaCl 4.5 g/L): 15.12%
Increase of root weight-promoting speed (rice; NaCl 4.5 g/L): 25.22%
Increase of root-shoot ratio (rice; NaCl 4.5 g/L): −3.17%
Increase of seedling weight-promoting rate (rice; NaCl 4.5 g/L): 27.32%
Adventitious root number (mung bean seedlings; 0.01 ppm): 15.05 root/seedling
Total adventitious root length (mung bean seedlings; 0.01 ppm): 24.56 cm/seedling
Adventitious root number (mung bean seedlings; 0.1 ppm): 14.54 root/seedling
Total adventitious root length (mung bean seedlings; 0.1 ppm): 23.55 cm/seedling
